Data set [1] can be described thus: Oxidative stability index (OSI). It is filed as physicochemical. The conditions noted are these: 80° C., air flow […]. The procedure:
Oxidative stability index (OSI). An Oxidative Stability Instrument (Omnion, Rockland, Mass.) was used to measure induction times. Five grams of tricaprylin, EPAX 5500 (fish oil TAG, Pronova Biocare, Sandefjord, Norway), and SL which was deacidified by alkali-liquid extraction were placed into the disposable borosilicate glass reaction tubes with disposable pipets. The heating temperature was 80° C. The polycarbonate conductivity tubes were filled with deionized water and he probes were connected. After temperature reached 80° C., air was bubbled in. […] OSI time was determined with an on-line computer, which monitored the conductivity vs time and plotted the induction period automatically. OSI values at 80° C. were converted to AOM and OSI values at 97.8° C.

Data set [2] can be described thus: TBA (2-thiobarbituric acid) lipid oxidation test. It is filed as physicochemical. The conditions noted are these: 1, 2, and 4% α-tocopherol in SL, after 48 hours. The procedure: TBA. A modified extraction 2-thiobarbituric acid method was used, Salih, et al., Poult. Sci., 66:1483-1488 (1987). The TBA test expresses lipid oxidation in milligram malonaldehyde (secondary oxidation product of polyunsaturated fatty acids) per kilogram of sample. 1±0.002 grams of SL was mixed with 0.01, 0.02, and 0.04 grams of α-tocopherol in a 25 mL flask and left at room temperature without protection from light for 12, 24, and 48 hours. Each sample was then purged with nitrogen and stored at −90° C. until assay. One milliliter of 6% BHT in ethanol and 25 mL 5% TCA solution in distilled water were added to each sample and blended. A 2 mL aliquot of the blended sample was mixed with 0.02 M TBA solution (3 mL) in screw capped test tubes. After vortexing (30 sec.), the tubes were incubated in boiling water for 30 min., cooled and the absorbance against blank was measured at 535 nm. A 5 μL aliquot of TEP (0.92 g/mL) was diluted to 5 mL with 5% TCA solution and diluted to prepare various concentrations ranging from […]. Each dilution was incubated and the absorbance against blank was measured after cooling. Standard curve was plotted using absorbance values vs amount of TEP which was converted from concentration.

In the case of `CCCCCCCC(=O)OCC(COC(=O)CCCCCCC)OC(=O)CCCCCCC` [tricaprylin, 1,2,3-trioctanoyl glycerol], in data set [1], the OSI value entry is reported as “quite stable to oxidation”.
For `Cc1c(C)c2c(c(C)c1O)CC[C@@](C)(CCC[C@H](C)CCC[C@H](C)CCCC(C)C)O2` [α-tocopherol], the “antioxidant effect on SL (TBA)” value in data set [2] is “reduced the oxidation of SL significantly”.
